Measurements: patent publication US7550613B2, “Compounds” (Pronova Biopharma Norge AS, priority 2005, dated 2009)
Where two headings read alike, the source gives them in different places.

Assays:
[1] = Vaagenes 1999; cited from earlier work
PPARα receptor = molecular target: T1, PPARα receptor (Rattus norvegicus, UniProt P37230); conditions: rat liver cells (Pawar & Jump 2003); cited from earlier work
T1 construct: host or cells: rat liver cells
T1 sequence (P37230 1-468): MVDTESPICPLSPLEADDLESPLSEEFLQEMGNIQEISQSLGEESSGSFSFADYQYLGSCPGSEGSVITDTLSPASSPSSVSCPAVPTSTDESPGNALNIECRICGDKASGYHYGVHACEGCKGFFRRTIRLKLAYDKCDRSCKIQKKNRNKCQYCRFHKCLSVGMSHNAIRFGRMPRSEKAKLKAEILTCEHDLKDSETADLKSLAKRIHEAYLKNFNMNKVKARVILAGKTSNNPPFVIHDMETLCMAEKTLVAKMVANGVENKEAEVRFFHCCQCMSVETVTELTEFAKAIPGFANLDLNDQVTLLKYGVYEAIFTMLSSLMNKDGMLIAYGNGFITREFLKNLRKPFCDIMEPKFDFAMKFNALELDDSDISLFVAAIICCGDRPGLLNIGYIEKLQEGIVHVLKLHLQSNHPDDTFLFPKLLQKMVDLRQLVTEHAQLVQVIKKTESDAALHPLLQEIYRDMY

platelet aggregation [2] = conditions: in vivo (Willumsen 1998); cited from earlier work
platelet aggregation [3] = conditions: in vitro (Larsen 1998); cited from earlier work
[4] = Larsen 1998; cited from earlier work
[5] = Body weight and food consumption during 2 weeks of diet intervention after 8 weeks of HF diet; format: in vivo, adipose prone mice of the C57BL/6J strain; conditions: FIG. 10; last 2 weeks of experimental diets after 8 weeks HF diet; PRBs 1.5% of fat content, rosiglitazone 100 mg/KG diet
Method: The animals (n=8 in each group) were fed high fat diet (fat constituting 60% of total calories, the same diet as used in Block 5) for 8 weeks. Thereafter they were given the PRBs in a dose of 1.5% of the fat content of the diet for another two weeks. The rosiglitazone group was given an amount of 100 mg/KG diet. The control groups continued with either only high fat diet or standard chow.

[6] = Effect of DHA derivatives in adipose prone mice during 4 months of dietary interventions (Example 5a); format: in vivo, male C57BL/6 mice; design: AUC: unit not given beside the values; conditions: for Insulin: plasma
Method: All experiments were performed on male C57BL/6 mice, either a substrain C57BL/N (supplier: Charles River, Germany, n=160, experiments A-C, see below), or a substrain C57BL/6J (supplier: the Jackson laboratory, Bar Harbor, Me., USA, n=32, experiment D). Total numbers of animals used were higher (n=170 and 36, respectively), because of culling. In the latter case, animals were bred for several generations (<20) at the Institute of Physiology. At the beginning of the treatment, animals were 14-week-old and their body weight range was 23.6-27.1 g. One week before the study start, animals were sorted according to their body weight and assigned to subgroups (n=8) of similar mean body weight. This method allowed for culling of about 5-10% of animals showing the lowest and highest body weight, respectively. The animals eliminated from the study at this stage were sacrificed by cervical dislocation. Complete health check of mice was performed by the supplier Charles River and at the start of study serological tests were performed by ANLAB (Prague, Czech Republic). In addition, regular health checks were performed in the animal house in 3-mo-intervals using sentinel mice and serological examinations (ANLAB). In all the tests, the animals were free of specific pathogens.
• (i) Chow diet (ssniff R/M-H from SSNIFF Spezialdieten Gmbh, Soest, Germany; see also http://ssniff.de) with protein, fat and carbohydrate forming 33, 9, and 58 energy %, respectively • (ii) High-fat diet prepared in the laboratory (cHF diet) with protein, fat and carbohydrate forming 15, 59, and 26 energy %, respectively, and well characterized fatty acid composition (with most of the lipids coming from corn oil; see Ruzickova 2004) • (iii) cHF diets in which 0.15, 0.5, and 1.5% of fat (specifically the corn oil constituent) was replaced by various PRB-compounds, namely PRB1, PRB2, PRB5, PRB7, and PRB8, or by DHA. All these compounds were in the form of ethyl esters, provided by Pronova Biocare a.s. in sealed containers. Chemical composition of the PRB-compounds was unknown to the laboratory performing the experiments (Institute of Physiology, Academy of Sciences Prague, Czech Republic).
The study was based on 4 individual experiments. In each of the experiments, different PRB-compounds (or DHA, respectively) admixed to cHF diet in three different concentrations (0.15, 0.5, and 1.5% of the fat content) were tested. In each experiment, a subgroup of plain cHF diet-fed mice was included and served as a control. Mice were caged in groups of 4 and fed standard chow diet until 3 mo of age, when animals (n=8-13) were randomly assigned to the different test diets. After 2 mo on this new diet (at 5 mo of age), animals were fasted overnight and in the morning, intraperitoneal Glucose Tolerance Test (GTT) was performed. Animals were sacrificed after 4 months on the experimental diets, at 7 mo of age, and the end-point analysis were performed.

PPARγ = molecular target: T2, PPARγ (Homo sapiens, UniProt P37231); experiment: Affinity testing in transfected cells (release of luciferase); format: cell-based; conditions: FIG. 8; 10 μM of PRBs
T2 construct: For full length PPAR transfection studies, each well received 5 μg reporter construct; expressed in transfected cells; host or cells: COS-1 cells
T2 sequence (P37231 1-505): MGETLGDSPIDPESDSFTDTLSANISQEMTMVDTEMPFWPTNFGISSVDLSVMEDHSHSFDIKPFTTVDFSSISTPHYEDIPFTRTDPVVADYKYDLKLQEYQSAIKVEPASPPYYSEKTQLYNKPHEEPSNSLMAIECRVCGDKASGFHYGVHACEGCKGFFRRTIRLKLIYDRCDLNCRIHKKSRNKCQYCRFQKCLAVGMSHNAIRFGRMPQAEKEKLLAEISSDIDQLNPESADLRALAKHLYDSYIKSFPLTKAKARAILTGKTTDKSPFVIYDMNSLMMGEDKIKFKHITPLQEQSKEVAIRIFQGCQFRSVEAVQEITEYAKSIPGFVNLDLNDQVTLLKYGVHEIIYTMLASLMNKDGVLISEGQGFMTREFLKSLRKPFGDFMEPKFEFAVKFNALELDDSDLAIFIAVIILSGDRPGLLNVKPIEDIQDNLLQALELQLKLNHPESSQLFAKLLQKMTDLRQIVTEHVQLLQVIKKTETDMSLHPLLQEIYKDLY
Method: Release of luciferase is correlated to transcription of genes. Binding of a ligand to a nuclear receptor such as PPARγ induces transcription of the respective gene thereby releasing luciferase. This technique therefore provides a measure of ligand affinity to the receptor as well as activation of the responsible gene.
Transient transfection of COS-1 cells was performed in 6-well plates as described by Graham and van der Eb (Graham). For full length PPAR transfection studies, each well received 5 μg reporter construct, 2.5 μg pSV-β-galactosidase as an internal control, 0.4 μg pSG5-PPARγ2. The cells were harvested after 72 h, and the luciferase activity was measured according to the protocol (Promega). The luciferase activity was normalised against β-galactosidase activity. The adipocytes were transfected at D11 of differentiation using 16 μl LipofectaminPlus reagent, 4 μl Lipofectamine (Life Technologies Inc.), 0.2 μg pSG5-PPARγ, and 100 ng pTK Renilla luciferase as control of transfection afficiency. […] The luciferase activities were measured as recommended by the manufacturer (Dual Luciferase assay, Promega). […]
Fatty acids (BRL or DHA) and PRBs (stock solutions) were solubilized to 0.1 M final concentration in DMSO. […] Luciferase activity was measured using a luminometer (TD-20/20 luminometer; Turner Designs, Sunnycvale, Calif.) and normalized against protein content.

PPARα = molecular target: T3, PPARα (Homo sapiens, UniProt Q07869); conditions: Larsen 2005; cited from earlier work
T3 sequence (Q07869 1-468): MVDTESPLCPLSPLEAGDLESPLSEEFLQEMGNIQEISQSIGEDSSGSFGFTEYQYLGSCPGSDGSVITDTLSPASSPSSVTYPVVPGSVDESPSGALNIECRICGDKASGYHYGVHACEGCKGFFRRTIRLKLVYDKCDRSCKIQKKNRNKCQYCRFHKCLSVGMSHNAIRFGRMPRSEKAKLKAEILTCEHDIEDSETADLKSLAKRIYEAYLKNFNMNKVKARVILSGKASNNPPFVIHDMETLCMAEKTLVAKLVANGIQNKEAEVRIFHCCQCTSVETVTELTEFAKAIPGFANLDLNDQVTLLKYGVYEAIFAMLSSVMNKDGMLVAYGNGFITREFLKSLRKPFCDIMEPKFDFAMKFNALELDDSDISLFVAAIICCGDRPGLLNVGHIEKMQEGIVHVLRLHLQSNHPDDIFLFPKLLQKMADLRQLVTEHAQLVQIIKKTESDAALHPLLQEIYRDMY

CC/C=C\C/C=C\C/C=C\C/C=C\C/C=C\CCCC(=O)OCC [EPA EE]
plasma free fatty acid [1]: had no effect

CC/C=C\C/C=C\C/C=C\C/C=C\C/C=C\CCCC(=O)O [EPA, (all-Z)-5,8,11,14,17-eicosapentaenoic acid]
binding capacity to the PPARα receptor (PPARα receptor): highest binding capacity

CC/C=C\C/C=C\C/C=C\C/C=C\C/C=C\CCC(C)C(=O)O (stereo not drawn) [α-methyl EPA]
inhibition of platelet aggregation (platelet aggregation [2]): stronger inhibitor of platelet aggregation than EPA | inhibition of platelet aggregation (platelet aggregation [3]): stronger inhibitor of platelet aggregation than EPA | incorporation into phospholipids and triglycerids [4]: is incorporated into phospholipids and triglycerids

CC/C=C\C/C=C\C/C=C\C/C=C\C/C=C\C/C=C\CCC(=O)O [DHA, (all-Z)-4,7,10,13,16,19-docosahexaenoic acid]
binding capacity to the PPARα receptor (PPARα receptor): highest binding capacity | change of body weight [5]: completely stopped the weight gain and even led to reduction of body weight

CC/C=C\C/C=C\C/C=C\C/C=C\C/C=C\C/C=C\CC(CC)(CC)C(=O)OCC [PRB-8, α,α di-ethyl docosahexaenoic acid ethyl ester]
body weight (BW) ([6]; 2 months intervention, 1.5%, controls 29.6±0.9): 28.0±0.7 grams | AUC ([6]; 2 months intervention, 1.5%, controls 1074±91): 1031±104

CC/C=C\C/C=C\C/C=C\C/C=C\C/C=C\CC(C)CC(=O)O (stereo not drawn) [β-methyl EPA]
incorporation into phospholipids and triglycerids [4]: is incorporated into phospholipids and triglycerids

CC/C=C\C/C=C\C/C=C\C/C=C\C/C=C\C/C=C\CC(SC)C(=O)OCC (stereo not drawn) [PRB-6, α-tiomethyl docosahexaenoic acid ethyl ester]
release of luciferase from transfected cells (PPARγ): significantly higher release of luciferase

CC/C=C\C/C=C\C/C=C\C/C=C\C/C=C\C/C=C\CC(C)C(=O)OCC (stereo not drawn) [PRB-1, α-methyl docosahexaenoic acid ethyl ester]
Body wt. gain ([6]; 4 months, 0.15% concentration): 22.9 ± 1.1 grams | AUCglucose ([6]; intraperitoneal glucose tolerance test, 1.5% concentration): 913 ± 68 mM × 180 min | Insulin ([6]; 4 months, 0.15% concentration): 3.50 ± 0.29 ng/mL | Insulin ([6]; 4 months, 1.5% concentration): 2.73 ± 0.33 ng/mL

CC/C=C\C/C=C\C/C=C\C/C=C\C/C=C\CCC(CC)C(=O)O (stereo not drawn) [α-ethyl EPA]
activation of the nuclear receptor PPARα (PPARα): equal strength as α-methyl EPA
